Literature values, collected in patent US11229617B2, “Topical anti-inflammatory compositions” (Achelios Therapeutics, Inc., priority 2016, dated 2022).

| SMILES | pKa |
| --- | --- |
| CC(C)(O)CC(=O)O [hydroxymethyl-butyric acid] | 4.55 |
| CCCCCC(=O)O [hexanoic (caproic) acid] | 4.88 |
